{"source": "paper PMC8185074", "about": "“Anchor extension: a structure-guided approach to design cyclic peptides targeting enzyme active sites” (Nature Communications, 2021)", "assay_type_in_all_cases": "biochemical", "key": {"HDAC8": {"target": "T1, HDAC8 (Homo sapiens, UniProt Q9BY41)", "T1 construct": "purchased Reaction Biology Corporation (assay run by the CRO)", "T1 sequence (Q9BY41 1-377)": "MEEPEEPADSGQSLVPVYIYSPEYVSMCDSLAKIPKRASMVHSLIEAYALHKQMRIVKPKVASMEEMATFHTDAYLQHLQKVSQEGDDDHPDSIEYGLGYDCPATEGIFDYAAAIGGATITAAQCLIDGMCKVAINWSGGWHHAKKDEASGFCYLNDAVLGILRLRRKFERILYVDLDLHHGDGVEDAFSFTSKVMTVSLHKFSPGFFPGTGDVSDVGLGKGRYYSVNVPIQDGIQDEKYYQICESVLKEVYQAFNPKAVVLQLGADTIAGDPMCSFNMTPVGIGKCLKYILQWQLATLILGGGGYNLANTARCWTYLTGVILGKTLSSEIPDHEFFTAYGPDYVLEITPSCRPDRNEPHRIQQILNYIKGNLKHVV", "assay": "HDAC8 inhibition, full IC50 measurement (Reaction Biology; fluorogenic p53 peptide RHKK(Ac)AMC)", "details": "t1/t2 replicates", "outline": "(§1)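 Inhibitory peptides were acoustically dispensed with enzyme, then substrate added; 1 h at 30 °C. Developer stopped reaction; plateau endpoint fluorescence (360/460 nm) gave IC50.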"}, "HDAC2": {"target": "T2, HDAC2 (Homo sapiens, UniProt Q92769)", "T2 construct": "purchased Reaction Biology Corporation (assay run by the CRO)", "T2 sequence (Q92769 whole entry)": "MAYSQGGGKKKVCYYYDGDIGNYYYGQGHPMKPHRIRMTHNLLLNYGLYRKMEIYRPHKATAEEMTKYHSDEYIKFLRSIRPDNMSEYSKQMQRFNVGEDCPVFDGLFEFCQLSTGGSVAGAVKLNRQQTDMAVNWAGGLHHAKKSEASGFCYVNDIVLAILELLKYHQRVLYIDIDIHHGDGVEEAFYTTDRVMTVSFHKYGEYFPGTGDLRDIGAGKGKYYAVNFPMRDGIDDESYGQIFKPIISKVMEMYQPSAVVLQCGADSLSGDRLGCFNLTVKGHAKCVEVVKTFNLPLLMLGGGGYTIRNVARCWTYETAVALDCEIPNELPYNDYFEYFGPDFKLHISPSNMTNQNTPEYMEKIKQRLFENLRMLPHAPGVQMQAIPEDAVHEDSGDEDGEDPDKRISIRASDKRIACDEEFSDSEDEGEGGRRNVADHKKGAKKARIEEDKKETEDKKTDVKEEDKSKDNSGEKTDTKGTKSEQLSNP", "assay": "HDAC2 inhibition, full IC50 measurement (Reaction Biology; fluorogenic p53 peptide RHKK(Ac)AMC)", "outline": "as §1"}, "HDAC1": {"target": "T3, HDAC1 (Homo sapiens, UniProt Q13547)", "T3 construct": "purchased Reaction Biology Corporation (assay run by the CRO)", "T3 sequence (Q13547 whole entry)": "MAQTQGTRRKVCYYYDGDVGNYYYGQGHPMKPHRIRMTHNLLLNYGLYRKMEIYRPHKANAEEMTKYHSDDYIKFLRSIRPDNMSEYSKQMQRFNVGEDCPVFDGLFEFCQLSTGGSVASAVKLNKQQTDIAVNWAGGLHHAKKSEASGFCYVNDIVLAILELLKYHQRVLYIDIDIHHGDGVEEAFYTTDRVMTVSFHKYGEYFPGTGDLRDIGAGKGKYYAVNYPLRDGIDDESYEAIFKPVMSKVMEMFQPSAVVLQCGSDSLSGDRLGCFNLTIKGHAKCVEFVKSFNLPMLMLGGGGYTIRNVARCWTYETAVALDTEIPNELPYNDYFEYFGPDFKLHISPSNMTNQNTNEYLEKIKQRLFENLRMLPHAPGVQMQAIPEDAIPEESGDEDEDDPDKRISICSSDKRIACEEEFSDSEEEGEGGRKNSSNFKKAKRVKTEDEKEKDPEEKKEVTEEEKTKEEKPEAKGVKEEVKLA", "assay": "HDAC1 inhibition, full IC50 measurement (Reaction Biology; fluorogenic p53 peptide RHKK(Ac)AMC)", "details": "t1/t2 replicates", "outline": "as §1"}, "[1]": {"details": "peptide conc. 1.00E-05 M, listed as des1.1.1_t1"}, "[2]": {"details": "peptide conc. 1.00E-05 M, listed as des1.1.1_t2"}, "[3]": {"details": "peptide conc. 1.11E-06 M, listed as des1.1.1_t1"}, "[4]": {"details": "peptide conc. 1.11E-06 M, listed as des1.1.1_t2"}, "[5]": {"details": "peptide conc. 1.23E-07 M, listed as des1.1.1_t1"}, "[6]": {"details": "peptide conc. 1.23E-07 M, listed as des1.1.1_t2"}, "[7]": {"details": "peptide conc. 1.37E-08 M, listed as des1.1.1_t1"}, "[8]": {"details": "peptide conc. 1.37E-08 M, listed as des1.1.1_t2"}, "[9]": {"details": "peptide conc. 1.52E-09 M, listed as des1.1.1_t1"}, "[10]": {"details": "peptide conc. 1.52E-09 M, listed as des1.1.1_t2"}, "[11]": {"details": "peptide conc. 3.33E-06 M, listed as des1.1.1_t1"}, "[12]": {"details": "peptide conc. 3.33E-06 M, listed as des1.1.1_t2"}, "[13]": {"details": "peptide conc. 3.70E-07 M, listed as des1.1.1_t1"}, "[14]": {"details": "peptide conc. 3.70E-07 M, listed as des1.1.1_t2"}, "[15]": {"details": "peptide conc. 4.12E-08 M, listed as des1.1.1_t1"}, "[16]": {"details": "peptide conc. 4.12E-08 M, listed as des1.1.1_t2"}, "[17]": {"details": "peptide conc. 4.57E-09 M, listed as des1.1.1_t1"}, "[18]": {"details": "peptide conc. 4.57E-09 M, listed as des1.1.1_t2"}, "[19]": {"details": "peptide conc. 5.08E-10 M, listed as des1.1.1_t1"}, "[20]": {"details": "peptide conc. 5.08E-10 M, listed as des1.1.1_t2"}}, "note": "Peptide text beside a SMILES is read from it.", "data": [{"smiles": "NCCCC[C@H]1NC(=O)[C@H](CCC(N)=O)NC(=O)[C@H](CCC(=O)O)NC(=O)[C@@H]2CCCN2C(=O)[C@H](CC(N)=O)NC(=O)[C@H](CCCCCS)NC(=O)CNC(=O)[C@H](Cc2c[nH]c3ccccc23)NC1=O", "note": "[des1.1.1, SHA-Asn-Pro-Glu-Gln-dLys-Trp-Gly] (HELM PEPTIDE1{E.Q.[dK].W.G.[O=C([C@H](CCCCCS)N[*:1])[*:2]].N.P}$PEPTIDE1,PEPTIDE1,1:R1-8:R2$$$V2.0)", "values": [{"measurement": "HDAC8 activity raw data (signal)", "setting": "HDAC8; [1]", "value": 258617}, {"measurement": "HDAC8 activity raw data (signal)", "setting": "HDAC8; [2]", "value": 8333740}, {"measurement": "HDAC8 activity raw data (signal)", "setting": "HDAC8; [3]", "value": 532680}, {"measurement": "HDAC8 activity raw data (signal)", "setting": "HDAC8; [4]", "value": 26455057}, {"measurement": "HDAC8 activity raw data (signal)", "setting": "HDAC8; [5]", "value": 587120}, {"measurement": "HDAC8 activity raw data (signal)", "setting": "HDAC8; [6]", "value": 38904462}, {"measurement": "HDAC8 activity raw data (signal)", "setting": "HDAC8; [7]", "value": 802422}, {"measurement": "HDAC8 activity raw data (signal)", "setting": "HDAC8; [8]", "value": 44804049}, {"measurement": "HDAC8 activity raw data (signal)", "setting": "HDAC8; [9]", "value": 956971}, {"measurement": "HDAC8 activity raw data (signal)", "setting": "HDAC8; [10]", "value": 49754188}, {"measurement": "HDAC8 activity raw data (signal)", "setting": "HDAC8; [11]", "value": 289575}, {"measurement": "HDAC8 activity raw data (signal)", "setting": "HDAC8; [12]", "value": 18105294}, {"measurement": "HDAC8 activity raw data (signal)", "setting": "HDAC8; [13]", "value": 559845}, {"measurement": "HDAC8 activity raw data (signal)", "setting": "HDAC8; [14]", "value": 34440414}, {"measurement": "HDAC8 activity raw data (signal)", "setting": "HDAC8; [15]", "value": 916202}, {"measurement": "HDAC8 activity raw data (signal)", "setting": "HDAC8; [16]", "value": 43441318}, {"measurement": "HDAC8 activity raw data (signal)", "setting": "HDAC8; [17]", "value": 928568}, {"measurement": "HDAC8 activity raw data (signal)", "setting": "HDAC8; [18]", "value": 47580068}, {"measurement": "HDAC8 activity raw data (signal)", "setting": "HDAC8; [19]", "value": 688133}, {"measurement": "HDAC8 activity raw data (signal)", "setting": "HDAC8; [20]", "value": 50930211}, {"measurement": "2-Selectivity: fold potency for HDAC2 over HDAC6", "setting": "HDAC2", "value": 0.17, "unit": "fold"}, {"measurement": "HDAC2 activity raw data (signal)", "setting": "HDAC2; Conc. 1.00E-05 M, t1", "value": 51389}, {"measurement": "HDAC2 activity raw data (signal)", "setting": "HDAC2; Conc. 1.11E-06 M, t1", "value": 176321}, {"measurement": "HDAC2 activity raw data (signal)", "setting": "HDAC2; Conc. 1.23E-07 M, t1", "value": 517115}, {"measurement": "HDAC2 activity raw data (signal)", "setting": "HDAC2; Conc. 1.23E-07 M, t2", "value": 516299}, {"measurement": "HDAC2 activity raw data (signal)", "setting": "HDAC2; Conc. 1.37E-08 M, t1", "value": 670648}, {"measurement": "HDAC2 activity raw data (signal)", "setting": "HDAC2; Conc. 1.37E-08 M, t2", "value": 890041}, {"measurement": "HDAC2 activity raw data (signal)", "setting": "HDAC2; Conc. 1.52E-09 M, t1", "value": 768698}, {"measurement": "HDAC2 activity raw data (signal)", "setting": "HDAC2; Conc. 1.52E-09 M, t2", "value": 986775}, {"measurement": "HDAC2 activity raw data (signal)", "setting": "HDAC2; Conc. 3.33E-06 M, t1", "value": 91275}, {"measurement": "HDAC2 activity raw data (signal)", "setting": "HDAC2; Conc. 3.70E-07 M, t1", "value": 346891}, {"measurement": "HDAC2 activity raw data (signal)", "setting": "HDAC2; Conc. 4.12E-08 M, t1", "value": 680634}, {"measurement": "HDAC2 activity raw data (signal)", "setting": "HDAC2; Conc. 4.12E-08 M, t2", "value": 655155}, {"measurement": "HDAC2 activity raw data (signal)", "setting": "HDAC2; Conc. 4.57E-09 M, t1", "value": 833526}, {"measurement": "HDAC2 activity raw data (signal)", "setting": "HDAC2; Conc. 4.57E-09 M, t2", "value": 959526}, {"measurement": "HDAC2 activity raw data (signal)", "setting": "HDAC2; Conc. 5.08E-10 M, t1", "value": 761364}, {"measurement": "HDAC2 activity raw data (signal)", "setting": "HDAC2; Conc. 5.08E-10 M, t2", "value": 1054303}, {"measurement": "HDAC1 activity raw data (signal)", "setting": "HDAC1; [1]", "value": 15449}, {"measurement": "HDAC1 activity raw data (signal)", "setting": "HDAC1; [2]", "value": 6031}, {"measurement": "HDAC1 activity raw data (signal)", "setting": "HDAC1; [3]", "value": 152129}, {"measurement": "HDAC1 activity raw data (signal)", "setting": "HDAC1; [4]", "value": 83277}, {"measurement": "HDAC1 activity raw data (signal)", "setting": "HDAC1; [5]", "value": 509662}, {"measurement": "HDAC1 activity raw data (signal)", "setting": "HDAC1; [6]", "value": 396625}, {"measurement": "HDAC1 activity raw data (signal)", "setting": "HDAC1; [7]", "value": 648866}, {"measurement": "HDAC1 activity raw data (signal)", "setting": "HDAC1; [8]", "value": 876365}, {"measurement": "HDAC1 activity raw data (signal)", "setting": "HDAC1; [9]", "value": 760286}, {"measurement": "HDAC1 activity raw data (signal)", "setting": "HDAC1; [10]", "value": 1050479}, {"measurement": "HDAC1 activity raw data (signal)", "setting": "HDAC1; [11]", "value": 53777}, {"measurement": "HDAC1 activity raw data (signal)", "setting": "HDAC1; [12]", "value": 31360}, {"measurement": "HDAC1 activity raw data (signal)", "setting": "HDAC1; [13]", "value": 243491}, {"measurement": "HDAC1 activity raw data (signal)", "setting": "HDAC1; [14]", "value": 191722}, {"measurement": "HDAC1 activity raw data (signal)", "setting": "HDAC1; [15]", "value": 677146}, {"measurement": "HDAC1 activity raw data (signal)", "setting": "HDAC1; [16]", "value": 657201}, {"measurement": "HDAC1 activity raw data (signal)", "setting": "HDAC1; [17]", "value": 723834}, {"measurement": "HDAC1 activity raw data (signal)", "setting": "HDAC1; [18]", "value": 981941}, {"measurement": "HDAC1 activity raw data (signal)", "setting": "HDAC1; [19]", "value": 712167}, {"measurement": "HDAC1 activity raw data (signal)", "setting": "HDAC1; [20]", "value": 1083035}]}]}
